Values of other authors in PubChem BioAssay AID1259410 (Chemical Carcinogenesis Research Information System (CCRIS), 2018).

System: rodent tumor promotion studies, tumor incidence
Assay: CCRIS tumor promotion studies
Conditions: Route [Promoter]: DERMAL, Species: MOUSE

CCCCCCCCCCCCCC(=O)O[C@@H]1[C@@H](C)[C@@]2(O)[C@@H](C=C(CO)C[C@]3(O)C(=O)C(C)=C[C@@H]23)[C@@H]2C(C)(C)[C@]12OC(C)=O
outcome (Carcinogen: 1,2-DIHYDRO-1,2-DIHYDROXY-5,6-DIMETHYLCHRYSENE, 139562-14-4, Doses [Carcinogen]: 33, 100 NMOL IN 0.1 ML ACETONE ONCE, Doses [Promoter]: 0, 2.5 UG IN 0.1 ML ACETONE 3/WK FOR 20 WK BEGINNING 10 D POST CARCINOGEN DOSE (STUDY DURATION: 20 WK), Route [Carcinogen]: DERMAL, Strain/Sex: CD-1/FEMALE): skin: tumor | outcome (Carcinogen: 1,3-DIMETHYLBENZO[B]FLUORANTHRENE, 95741-51-8, Doses [Carcinogen]: 40, 100 NMOL TOTAL DOSES GIVEN IN 10 SUBDOSES 1/2 D IN 0.1 ML ACETONE, Doses [Promoter]: 2.5 UG IN 0.1 ML ACETONE 3/WK FOR 30 WK BEGINNING 10 D POST CARCINOGEN TREATMENT (STUDY DURATION: 34 WK), Route [Carcinogen]: DERMAL, Strain/Sex: CD-1/FEMALE): skin: tumors | outcome (Carcinogen: 1-METHYL-4H-CYCLOPENTA[DEF]PHENANTHRENE, 98090-89-2, Doses [Carcinogen]: 100 UG IN ACETONE (100 µL) 1/2 D FOR A TOTAL OF 10 SUBDOSES (TOTAL DOSE 1 MG), Doses [Promoter]: 0.0025% IN 100 µL ACETONE 3/WK FOR 20 WK BEGINNING POST CARCINOGEN TREATMENT (STUDY DURATION: 23 WK), Route [Carcinogen]: DERMAL, Strain/Sex: CD-1/FEMALE): skin: tumors | outcome (Carcinogen: 1-METHYLBENZO[B]FLUORANTHRENE, 95741-48-3, Doses [Carcinogen]: 100 NMOL TOTAL DOSE GIVEN IN 10 SUBDOSES 1/2 D IN 0.1 ML ACETONE, Doses [Promoter]: 2.5 UG IN 0.1 ML ACETONE 3/WK FOR 30 WK BEGINNING 10 D POST CARCINOGEN TREATMENT (STUDY DURATION: 34 WK), Route [Carcinogen]: DERMAL, Strain/Sex: CD-1/FEMALE): skin: tumors | outcome (Carcinogen: 2'-(4-NITROPHENOXY)OXIRANE, 59485-08-4, Doses [Carcinogen]: 5 UMOL IN 0.2 ML 15% DMSO IN ACETONE ONCE, Doses [Promoter]: 0, 15 NMOL IN 0.1 ML ACETONE ONCE 18-24 HR PRIOR TO CARCINOGEN DOSE THEN BEGINNING 1 WK LATER 2/WK FOR DURATION OF STUDY, Route [Carcinogen]: DERMAL, Strain/Sex: ICR/FEMALE): skin: papilloma | outcome (Carcinogen: 2-AMINO-3-METHYL-9H-PYRIDO[2,3-B]INDOLE, 68006-83-7, Doses [Carcinogen]: 0, 4 MG/0.1 ML DMSO 2/WK FOR 5 WK, Doses [Promoter]: 2.5 UG IN 0.1 ML ACETONE 2/WK FOR 47 WK BEGINNING 1 WK POST CARCINOGEN TREATMENT (STUDY DURATION: 48 WK), Route [Carcinogen]: DERMAL, Strain/Sex: CD-1/FEMALE): skin: tumor | outcome (Carcinogen: 2-AMINO-5-PHENYLPYRIDINE, 33421-40-8, Doses [Carcinogen]: 0, 10 MG/0.1 ML DMSO 2/WK FOR 5 WK, Doses [Promoter]: 2.5 UG IN 0.1 ML ACETONE 2/WK FOR 47 WK BEGINNING 1 WK POST CARCINOGEN TREATMENT (STUDY DURATION: 48 WK), Route [Carcinogen]: DERMAL, Strain/Sex: CD-1/FEMALE): skin: tumor | outcome (Carcinogen: 2-METHYLBENZO[K]FLUORANTHENE, 95741-57-4, Doses [Carcinogen]: 4 UMOL (TOTAL DOSE) ADMINISTERED IN 10 SUBDOSES 1/2 D, Doses [Promoter]: 2.5 UG IN 0.1 ML ACETONE 3/WK FOR 30 WK BEGINNING 10 D POST CARCINOGEN TREATMENT (STUDY DURATION: 33 WK), Route [Carcinogen]: DERMAL, Strain/Sex: CRL:CD-1/FEMALE): skin: tumor | outcome (Carcinogen: 3'-AZIDO-2',3'-DIDEOXYTHYMIDINE, 30516-87-1, Doses [Carcinogen]: 0, 25 MG IN 0.5 ML DISTILLED WATER ADMINISTERED TO PREGNANT RATS ON DAYS 12-18 OF GESTATION, Doses [Promoter]: 2 UG IN 0.1 ML DISTILLED WATER 2/WK FOR 17 WK THEN 5 UG IN 0.1 ML DISTILLED WATER 2/WK FROM WK 18 TO 35 ADMINISTERED TO, Route [Carcinogen]: GAVAGE, Strain/Sex: CD-1/MALE,FEMALE): skin:tumor | outcome (Carcinogen: 3-AMINO-1,4-DIMETHYL-5H-PYRIDO[4,3-B]INDOLE, 62450-06-0, Doses [Carcinogen]: 0, 2 MG/0.1 ML DMSO 2/WK FOR 5 WK, Doses [Promoter]: 2.5 UG IN 0.1 ML ACETONE 2/WK FOR 47 WK BEGINNING 1 WK POST CARCINOGEN TREATMENT (STUDY DURATION: 48 WK), Route [Carcinogen]: DERMAL, Strain/Sex: CD-1/FEMALE): skin: tumor | outcome (Carcinogen: 3-AMINO-1-METHYL-5H-PYRIDO[4,3-B]INDOLE, 62450-07-1, Doses [Carcinogen]: 0, 2 MG/0.1 ML DMSO 2/WK FOR 5 WK, Doses [Promoter]: 2.5 UG IN 0.1 ML ACETONE 2/WK FOR 47 WK BEGINNING 1 WK POST CARCINOGEN TREATMENT (STUDY DURATION: 48 WK), Route [Carcinogen]: DERMAL, Strain/Sex: CD-1/FEMALE): skin: tumor | outcome (Carcinogen: 3-METHYLBENZO[B]FLUORANTHRENE, 95741-50-7, Doses [Carcinogen]: 40, 100 NMOL TOTAL DOSE GIVEN IN 10 SUBDOSES 1/2 D IN 0.1 ML ACETONE, Doses [Promoter]: 2.5 UG IN 0.1 ML ACETONE 3/WK FOR 30 WK BEGINNING 10 D POST CARCINOGEN TREATMENT (STUDY DURATION: 34 WK), Route [Carcinogen]: DERMAL, Strain/Sex: CD-1/FEMALE): skin: tumors | outcome (Carcinogen: 3-METHYLCHOLANTHRENE, 56-49-5, Doses [Promoter]: 0, 1.8 NMOL IN 0.1 ML ACETONE 2/WK FOR 4 WK BEGINNING 6 WK POST CARCINOGEN DOSE (STUDY DURATION: 2 YR), Route [Carcinogen]: SUBCUTANEOUS, Strain/Sex: S/RVCRI/FEMALE): skin: tumor | outcome (Carcinogen: 4-CYCLOPENTA[DEF]CHRYSEN-4-ONE, 86853-91-0, Doses [Carcinogen]: 100 UG IN ACETONE (100 µL) 1/2 D FOR A TOTAL OF 10 SUBDOSES (TOTAL DOSE 1 MG), Doses [Promoter]: 0.0025% IN 100 µL ACETONE 3/WK FOR 20 WK BEGINNING POST CARCINOGEN TREATMENT (STUDY DURATION: 23 WK), Route [Carcinogen]: DERMAL, Strain/Sex: CD-1/FEMALE): skin: tumors | outcome (Carcinogen: 4-FLUOROBENZO[B]FLUORANTHENE, 146746-67-0, Doses [Carcinogen]: 10, 40, 120, 400 NMOL (TOTAL DOSE) APPLIED 1/2 D FOR 10 SUBDOSES, Doses [Carcinogen]: 10, 40, 120, 400 NMOL (TOTAL DOSE) APPLIED 1/2 D FOR 10 SUBDOSES, Doses [Promoter]: 0, 2.5 UG IN 100 µL ACETONE 3/WK FOR 20 WK BEGINNING 10 D POST CARCINOGEN TREATMENT (STUDY DURATION: 22 WK), Route [Carcinogen]: DERMAL, Strain/Sex: CRL:CD-1/FEMALE): skin: tumor | outcome (Carcinogen: 4-FLUOROBENZO[J]FLUORANTHENE, 129286-36-8, Doses [Carcinogen]: 0.3, 1, 2 UMOL (TOTAL DOSE) ADMINISTERED IN SUBDOSES 1/2 D, Doses [Carcinogen]: 0.3, 1, 2 UMOL (TOTAL DOSE) ADMINISTERED IN SUBDOSES 1/2 D, Doses [Promoter]: 2.5 UG IN 100 µL ACETONE 3/WK FOR 20 WK BEGINNING 10 D POST LAST CARCINOGEN DOSE (STUDY DURATION: 27 WK), Route [Carcinogen]: DERMAL, Strain/Sex: CD-1/FEMALE): skin: tumor | outcome (Carcinogen: 4-NITROPHENYL VINYL ETHER, 940-14-7, Doses [Carcinogen]: 5 UMOL IN 0.2 ML 15% DMSO IN ACETONE ONCE, Doses [Promoter]: 0, 15 NMOL IN 0.1 ML ACETONE ONCE 18-24 HR PRIOR TO CARCINOGEN DOSE THEN BEGINNING 1 WK LATER 2/WK FOR DURATION OF STUDY, Route [Carcinogen]: DERMAL, Strain/Sex: ICR/FEMALE): skin: papilloma | outcome (Carcinogen: 4H-CYCLOPENTA[DEF]CHRYSENE, 202-98-2, Doses [Carcinogen]: 100 UG IN ACETONE (100 µL) 1/2 D FOR A TOTAL OF 10 SUBDOSES (TOTAL DOSE 1 MG), Doses [Promoter]: 0.0025% IN 100 µL ACETONE 3/WK FOR 20 WK BEGINNING POST CARCINOGEN TREATMENT (STUDY DURATION: 23 WK), Route [Carcinogen]: DERMAL, Strain/Sex: CD-1/FEMALE): skin: tumors | outcome (Carcinogen: 5,6-DIMETHYLCHRYSENE, 3697-27-6, Doses [Carcinogen]: 100 NMOL IN 0.1 ML ACETONE ONCE, Doses [Promoter]: 0, 2.5 UG IN 0.1 ML ACETONE 3/WK FOR 20 WK BEGINNING 10 D POST CARCINOGEN DOSE (STUDY DURATION: 20 WK), Route [Carcinogen]: DERMAL, Strain/Sex: CD-1/FEMALE): skin: tumor | outcome (Carcinogen: 5-CHLOROMETHYLFURFURAL, 1623-88-7, Doses [Carcinogen]: 0, 10, 25 UMOL IN O.2 ML ACETONE:DMSO ONCE, Doses [Carcinogen]: 0, 10, 25 UMOL IN O.2 ML ACETONE:DMSO ONCE, Doses [Promoter]: 0, 2.5 UG 2/WK FOR 24 WK BEGINNING 1 WK POST CARCINOGEN DOSE (STUDY DURATION: 24 WK), Route [Carcinogen]: DERMAL, Strain/Sex: CD-1/FEMALE): skin: papilloma | outcome (Carcinogen: 5-FLUOROBENZO[B]FLUORANTHENE, 146746-68-1, Doses [Carcinogen]: 10, 40, 120, 400 NMOL (TOTAL DOSE) APPLIED 1/2 D FOR 10 SUBDOSES, Doses [Carcinogen]: 10, 40, 120, 400 NMOL (TOTAL DOSE) APPLIED 1/2 D FOR 10 SUBDOSES, Doses [Promoter]: 0, 2.5 UG IN 100 µL ACETONE 3/WK FOR 20 WK BEGINNING 10 D POST CARCINOGEN TREATMENT (STUDY DURATION: 22 WK), Route [Carcinogen]: DERMAL, Strain/Sex: CRL:CD-1/FEMALE): skin: tumor | outcome (Carcinogen: 5-HYDROXYMETHYLFURFURAL, 67-47-0, Doses [Carcinogen]: 0, 10, 25 UMOL IN 0.2 ML ACETONE:DMSO ONCE, Doses [Carcinogen]: 0, 10, 25 UMOL IN 0.2 ML ACETONE:DMSO ONCE, Doses [Promoter]: 0, 2.5 UG 2/WK FOR 24 WK BEGINNING 1 WK POST CARCINOGEN DOSE (STUDY DURATION: 24 WK), Route [Carcinogen]: DERMAL, Strain/Sex: CD-1/FEMALE): skin: papilloma | outcome (Carcinogen: 5-METHYLCHRYSENE, 3697-24-3, Doses [Carcinogen]: 33, 100 NMOL IN 0.1 ML ACETONE ONCE, Doses [Promoter]: 2.5 UG IN 0.1 ML ACETONE 3/WK FOR 25 WK BEGINNING 10 D POST INITIATION (STUDY DURATION: 27 WK), Route [Carcinogen]: DERMAL, Strain/Sex: CD-1/FEMALE): skin: tumors | outcome (Carcinogen: 5-SULFOOXYMETHYLFURFURAL, 159091-35-7, Doses [Carcinogen]: 0, 25 UMOL IN 0.2 ML ACETONE:DMSO ONCE, Doses [Promoter]: 0, 2.5 UG 2/WK FOR 24 WK BEGINNING 1 WK POST CARCINOGEN DOSE (STUDY DURATION: 24 WK), Route [Carcinogen]: DERMAL, Strain/Sex: CD-1/FEMALE): skin: papilloma | outcome (Carcinogen: 6-FLUOROBENZO[B]FLUORANTHENE, 125811-13-4, Doses [Carcinogen]: 10, 40, 120, 400 NMOL (TOTAL DOSE) APPLIED 1/2 D FOR 10 SUBDOSES, Doses [Carcinogen]: 10, 40, 120, 400 NMOL (TOTAL DOSE) APPLIED 1/2 D FOR 10 SUBDOSES, Doses [Promoter]: 0, 2.5 UG IN 100 µL ACETONE 3/WK FOR 20 WK BEGINNING 10 D POST CARCINOGEN TREATMENT (STUDY DURATION: 22 WK), Route [Carcinogen]: DERMAL, Strain/Sex: CRL:CD-1/FEMALE): skin: tumor
